Experimental data as given in ChEMBL document CHEMBL2021863, “Design and synthesis of new 4-pyrazolin-3-yl-1,2,3-triazoles and 1,2,3-triazol-4-yl-pyrazolin-1-ylthiazoles as potential antimicrobial agents” (2012).
Values after ≈ are worked out from the molar mass of the structure shown.

Key:
Saccharomyces cerevisiae [1] = assay: Antifungal activity against Saccharomyces cerevisiae by two-fold serial dilution method; assay type: functional
Candida albicans [2] = assay: Antifungal activity against Candida albicans NRRL Y-477 by two-fold serial dilution method; assay type: functional
Saccharomyces cerevisiae [3] = assay: Antifungal activity against Saccharomyces cerevisiae at 50 ug/ml after 24 hrs by agar well diffusion assay; assay type: functional; conditions: read-out: DIZ
Candida albicans [4] = assay: Antifungal activity against Candida albicans NRRL Y-477 at 50 ug/ml after 24 hrs by agar well diffusion assay; assay type: functional; conditions: NRRL Y-477, 24 h, read-out: DIZ
Klebsiella pneumoniae [5] = assay: Antimicrobial activity against Klebsiella pneumoniae ATCC 13883 at 100 ug/ml after 24 hrs by agar well diffusion assay; assay type: functional; conditions: ATCC 13883, 24 h, read-out: DIZ
Staphylococcus aureus [6] = assay: Antimicrobial activity against Staphylococcus aureus ATCC 29213 at 100 ug/ml after 24 hrs by agar well diffusion assay; assay type: functional; conditions: ATCC 29213, 24 h, read-out: DIZ
Pseudomonas aeruginosa [7] = assay: Antimicrobial activity against Pseudomonas aeruginosa ATCC 27953 at 100 ug/ml after 24 hrs by agar well diffusion assay; assay type: functional; conditions: ATCC 27953, 24 h, read-out: DIZ
Micrococcus luteus [8] = assay: Antimicrobial activity against Sarcina lutea at 100 ug/ml after 24 hrs by agar well diffusion assay; assay type: functional; conditions: read-out: DIZ
Escherichia coli [9] = assay: Antimicrobial activity against Escherichia coli ATCC 25922 at 100 ug/ml after 24 hrs by agar well diffusion assay; assay type: functional; conditions: ATCC 25922, 24 h, read-out: DIZ
Staphylococcus aureus [10] = assay: Antimicrobial activity against Staphylococcus aureus ATCC 29213 after 24 hrs by two-fold serial dilution method; assay type: functional; conditions: ATCC 29213, 24 h
Priestia megaterium [11] = assay: Antimicrobial activity against Bacillus megaterium ATCC 9885 at 100 ug/ml after 24 hrs by agar well diffusion assay; assay type: functional; conditions: ATCC 9885, 24 h, read-out: DIZ
Pseudomonas aeruginosa [12] = assay: Antimicrobial activity against Pseudomonas aeruginosa ATCC 27953 after 24 hrs by two-fold serial dilution method; assay type: functional; conditions: ATCC 27953, 24 h
Escherichia coli [13] = assay: Antimicrobial activity against Escherichia coli ATCC 25922 after 24 hrs by two-fold serial dilution method; assay type: functional; conditions: ATCC 25922, 24 h
Micrococcus luteus [14] = assay: Antimicrobial activity against Sarcina lutea after 24 hrs by two-fold serial dilution method; assay type: functional
Saccharomyces cerevisiae [15] = assay: Antifungal activity against Saccharomyces cerevisiae at 100 ug/ml after 24 hrs by agar well diffusion assay; assay type: functional; conditions: read-out: DIZ
Priestia megaterium [16] = assay: Antimicrobial activity against Bacillus megaterium ATCC 9885 after 24 hrs by two-fold serial dilution method; assay type: functional; conditions: ATCC 9885, 24 h
Bacillus subtilis [17] = assay: Antimicrobial activity against Bacillus subtilis ATCC 6633 after 24 hrs by two-fold serial dilution method; assay type: functional; conditions: ATCC 6633, 24 h
Klebsiella pneumoniae [18] = assay: Antimicrobial activity against Klebsiella pneumoniae ATCC 13883 after 24 hrs by two-fold serial dilution method; assay type: functional; conditions: ATCC 13883, 24 h
Candida albicans [19] = assay: Antifungal activity against Candida albicans NRRL Y-477 at 100 ug/ml after 24 hrs by agar well diffusion assay; assay type: functional; conditions: NRRL Y-477, 24 h, read-out: DIZ
Bacillus subtilis [20] = assay: Antimicrobial activity against Bacillus subtilis ATCC 6633 at 100 ug/ml after 24 hrs by agar well diffusion assay; assay type: functional; conditions: ATCC 6633, 24 h, read-out: DIZ
Priestia megaterium [21] = assay: Antimicrobial activity against Bacillus megaterium ATCC 9885 at 50 ug/ml after 24 hrs by agar well diffusion assay; assay type: functional; conditions: ATCC 9885, 24 h, read-out: DIZ
Staphylococcus aureus [22] = assay: microbe, parasite or virus in culture; conditions: ATCC 29213, 24 h, read-out: DIZ
Description: Antimicrobial activity against Staphylococcus aureus ATCC 29213 at 50 ug/ml after 24 hrs by agar well diffusion assay

Bacillus subtilis [23] = assay: microbe, parasite or virus in culture; conditions: ATCC 6633, 24 h, read-out: DIZ
Description: Antimicrobial activity against Bacillus subtilis ATCC 6633 at 50 ug/ml after 24 hrs by agar well diffusion assay

Micrococcus luteus [24] = assay: Antimicrobial activity against Sarcina lutea at 50 ug/ml after 24 hrs by agar well diffusion assay; assay type: functional; conditions: read-out: DIZ
Pseudomonas aeruginosa [25] = assay: microbe, parasite or virus in culture; conditions: ATCC 27953, 24 h, read-out: DIZ
Description: Antimicrobial activity against Pseudomonas aeruginosa ATCC 27953 at 50 ug/ml after 24 hrs by agar well diffusion assay

Klebsiella pneumoniae [26] = assay: microbe, parasite or virus in culture; conditions: ATCC 13883, 24 h, read-out: DIZ
Description: Antimicrobial activity against Klebsiella pneumoniae ATCC 13883 at 50 ug/ml after 24 hrs by agar well diffusion assay

Row | SMILES | MIC (Saccharomyces cerevisiae [1]) [µg/mL] | MIC (Candida albicans [2]) [µg/mL] | MIC (Staphylococcus aureus [10]) [µg/mL] | MIC (Pseudomonas aeruginosa [12]) [µg/mL] | MIC (Escherichia coli [13]) [µg/mL] | MIC (Micrococcus luteus [14]) [µg/mL] | MIC (Priestia megaterium [16]) [µg/mL] | MIC (Bacillus subtilis [17]) [µg/mL] | MIC (Klebsiella pneumoniae [18]) [µg/mL] | other results
1 | CC(=O)N1CCN(c2ccc(OCC3COC(Cn4ccnc4)(c4ccc(Cl)cc4Cl)O3)cc2)CC1 (stereo not given) [KETOCONAZOLE] | 8.25 (≈ 15.5 µM) | 8.25 (≈ 15.5 µM) | – | – | – | – | – | – | – | zone of inhibition at 50 µg/mL (Saccharomyces cerevisiae [3]): 23 mm; zone of inhibition at 50 µg/mL (Candida albicans [4]): 22 mm
2 | Cc1ccc(-n2nnc(C3=NN(c4nc(-c5ccccc5)cs4)C(c4ccc(F)cc4)C3)c2C)cc1 (stereo not given) | 33 (≈ 66.7 µM) | 66 (≈ 133 µM) | 16.5 (≈ 33.4 µM) | 8.25 (≈ 16.7 µM) | 132 (≈ 267 µM) | 66 (≈ 133 µM) | 33 (≈ 66.7 µM) | 33 (≈ 66.7 µM) | 33 (≈ 66.7 µM) | zone of inhibition at 100 µg/mL (Klebsiella pneumoniae [5]): 26 mm; zone of inhibition at 100 µg/mL (Staphylococcus aureus [6]): 26 mm; zone of inhibition at 100 µg/mL (Pseudomonas aeruginosa [7]): 28 mm; zone of inhibition at 100 µg/mL (Micrococcus luteus [8]): 22 mm; zone of inhibition at 100 µg/mL (Escherichia coli [9]): 16 mm; zone of inhibition at 100 µg/mL (Priestia megaterium [11]): 24 mm; zone of inhibition at 100 µg/mL (Saccharomyces cerevisiae [15]): 22 mm; zone of inhibition at 100 µg/mL (Candida albicans [19]): 20 mm; zone of inhibition at 100 µg/mL (Bacillus subtilis [20]): 24 mm
3 | O=C(O)c1cn(C2CC2)c2cc(N3CCNCC3)c(F)cc2c1=O [CIPROFLOXACIN] | – | – | 8.25 (≈ 24.9 µM) | 16.5 (≈ 49.8 µM) | 16.5 (≈ 49.8 µM) | 16.5 (≈ 49.8 µM) | 8.25 (≈ 24.9 µM) | 8.25 (≈ 24.9 µM) | 16.5 (≈ 49.8 µM) | zone of inhibition at 50 µg/mL (Priestia megaterium [21]): 24 mm; zone of inhibition at 50 µg/mL (Staphylococcus aureus [22]): 20 mm; zone of inhibition at 50 µg/mL (Bacillus subtilis [23]): 22 mm; zone of inhibition at 50 µg/mL (Micrococcus luteus [24]): 20 mm; zone of inhibition at 50 µg/mL (Pseudomonas aeruginosa [25]): 24 mm; zone of inhibition at 50 µg/mL (Klebsiella pneumoniae [26]): 25 mm
